Source: PubChem BioAssay AID248 (DTP/NCI, 2004)
“And” between values parts separate entries of the source, which are not always exact repeats. Equal values may be shown once. Toxic doses and inconclusive results are not listed.

Tested on: L1210 leukemia ip in BDF1 mice, survival T/C
Assay: NCI In Vivo Anticancer Drug Screen. Data for tumor model L1210 Leukemia (intraperitoneal) in B6D2F1 (BDF1) mice
Conditions: endpoint: mean survival time, higher = longer survival
In short: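 Survival endpoint. Drug-treated group vs vehicle group, expressed as T divided by C. Tumor passaged by transplantation.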

[1] = dose: 50.0 mg/kg/injection, schedule: Q01DX001 (ip), vehicle: saline
[2] = dose: 100.0 mg/kg/injection, schedule: Q01DX001 (ip), vehicle: saline
[3] = dose: 100.0 mg/kg/injection, schedule: Q01DX Z (ip), vehicle: saline
[4] = dose: 200.0 mg/kg/injection, schedule: Q01DX001 (ip), vehicle: saline
[5] = dose: 100.0 mg/kg/injection, schedule: Q01DX001 (ip), vehicle: acetone
[6] = dose: 100.0 mg/kg/injection, schedule: Q04DX003 (ip), vehicle: acetone
[7] = dose: 200.0 mg/kg/injection, schedule: Q01DX001 (ip), vehicle: acetone
[8] = dose: 200.0 mg/kg/injection, schedule: Q04DX003 (ip), vehicle: acetone
[9] = dose: 400.0 mg/kg/injection, schedule: Q01DX001 (ip), vehicle: acetone
[10] = dose: 400.0 mg/kg/injection, schedule: Q04DX003 (ip), vehicle: acetone
[11] = dose: 100.0 mg/kg/injection, schedule: Q01DX001 (ip), vehicle: carboxymethylcellulose (CMC)
[12] = dose: 200.0 mg/kg/injection, schedule: Q01DX001 (ip), vehicle: carboxymethylcellulose (CMC)
[13] = dose: 100.0 mg/kg/injection, schedule: Q01DX001 (ip), vehicle: Klucel (hydroxypropylcellulose) (HPC)
[14] = dose: 100.0 mg/kg/injection, schedule: Q04DX003 (ip), vehicle: Klucel (hydroxypropylcellulose) (HPC)
[15] = dose: 200.0 mg/kg/injection, schedule: Q01DX001 (ip), vehicle: Klucel (hydroxypropylcellulose) (HPC)
[16] = dose: 200.0 mg/kg/injection, schedule: Q04DX003 (ip), vehicle: Klucel (hydroxypropylcellulose) (HPC)
[17] = dose: 400.0 mg/kg/injection, schedule: Q01DX001 (ip), vehicle: Klucel (hydroxypropylcellulose) (HPC)
[18] = dose: 400.0 mg/kg/injection, schedule: Q04DX003 (ip), vehicle: Klucel (hydroxypropylcellulose) (HPC)
[19] = dose: 400.0 mg/kg/injection, schedule: Q01DX001 (ip), vehicle: carboxymethylcellulose (CMC)

Compound: S=P(N1CCCCCC1)(N1CC1)N1CC1
- T/C (dose: 25.0 mg/kg/injection, schedule: Q01DX Z (ip), vehicle: saline): 110 % of control and 116 % of control
- T/C [1]: 108 % of control
- T/C (dose: 50.0 mg/kg/injection, schedule: Q01DX006 (iv), vehicle: saline): 104 % of control
- T/C (dose: 50.0 mg/kg/injection, schedule: Q01DX Z (ip), vehicle: saline): 96 % of control
- T/C (dose: 50.0 mg/kg/injection, schedule: Q01DX Z (oral), vehicle: saline): 122 % of control
- T/C [2]: 113 % of control
- T/C (dose: 100.0 mg/kg/injection, schedule: Q01DX006 (iv), vehicle: saline): 105 % of control
- T/C [3]: 170 % of control
- T/C (dose: 100.0 mg/kg/injection, schedule: Q01DX Z (oral), vehicle: saline): 158 % of control
- T/C [4]: 105 % of control
- T/C (dose: 200.0 mg/kg/injection, schedule: Q01DX006 (iv), vehicle: saline): 104 % of control
- T/C (dose: 250.0 mg/kg/injection, schedule: Q01DX001 (ip), vehicle: saline): 112 % of control
- T/C (dose: 500.0 mg/kg/injection, schedule: Q01DX001 (ip), vehicle: saline): 104 % of control

Compound: COCCCNP(=O)(OC)OC
- T/C [5]: 98 % of control
- T/C [6]: 98 % of control
- T/C [7]: 112 % of control
- T/C [8]: 100 % of control
- T/C [9]: 105 % of control
- T/C [10]: 95 % of control

Compound: O=C(CN1C(=O)C2CCCCC2C1=O)N1CC1 (configuration not stated)
- T/C [11]: 110 % of control
- T/C [12]: 103 % of control

Compound: O=P(OCc1ccccc1)(N(CCCl)CCCl)N1CCN(Cc2ccccc2)CC1 (configuration not stated)
- T/C (dose: 10.0 mg/kg/injection, schedule: Q01DX Z (ip), vehicle: saline): 93 % of control
- T/C (dose: 30.0 mg/kg/injection, schedule: Q01DX Z (ip), vehicle: saline): 90 % of control
- T/C [3]: 95 % of control

Compound: O=C(NC/C(Br)=C/Br)Nc1c(Cl)cccc1Cl
- T/C [13]: 94 % of control
- T/C [14]: 96 % of control
- T/C [15]: 91 % of control
- T/C [16]: 89 % of control
- T/C [17]: 91 % of control
- T/C [18]: 93 % of control

Compound: Cc1ccc(S(=O)(=O)N(CC(=O)O)c2cccc(Cl)c2)cc1
- T/C [14]: 91 % of control
- T/C [16]: 96 % of control
- T/C [18]: 100 % of control

Compound: CC(=O)c1ccc2ccc3ccccc3c2c1
- T/C (dose: 75.0 mg/kg/injection, schedule: Q01DX009 (ip), vehicle: saline): 98 % of control
- T/C (dose: 100.0 mg/kg/injection, schedule: Q04DX003 (ip), vehicle: saline): 98 % of control
- T/C (dose: 150.0 mg/kg/injection, schedule: Q01DX009 (ip), vehicle: saline): 98 % of control
- T/C (dose: 200.0 mg/kg/injection, schedule: Q04DX003 (ip), vehicle: saline): 101 % of control
- T/C (dose: 300.0 mg/kg/injection, schedule: Q01DX009 (ip), vehicle: saline): 95 % of control
- T/C (dose: 400.0 mg/kg/injection, schedule: Q04DX003 (ip), vehicle: saline): 101 % of control

Compound: O=C(CCl)Nc1c(Cl)cc(Cl)cc1Cl
- T/C (dose: 50.0 mg/kg/injection, schedule: Q04DX003 (ip), vehicle: Klucel (hydroxypropylcellulose) (HPC)): 97 % of control
- T/C [13]: 103 % of control
- T/C [14]: 90 % of control
- T/C [15]: 98 % of control
- T/C [16]: 93 % of control
- T/C [17]: 103 % of control

Compound: NC(=S)NN=C1CSSC1
- T/C (dose: 1.56 mg/kg/injection, schedule: Q01DX009 (ip), vehicle: water): 99 % of control
- T/C (dose: 3.12 mg/kg/injection, schedule: Q01DX009 (ip), vehicle: water): 96 % of control
- T/C (dose: 6.25 mg/kg/injection, schedule: Q01DX009 (ip), vehicle: water): 99 % of control
- T/C (dose: 12.5 mg/kg/injection, schedule: Q01DX009 (ip), vehicle: water): 103 % of control
- T/C (dose: 12.5 mg/kg/injection, schedule: Q04DX003 (ip), vehicle: water): 95 % of control
- T/C (dose: 25.0 mg/kg/injection, schedule: Q01DX009 (ip), vehicle: water): 103 % of control

Compound: CCOC(=O)Nc1cc(NCc2ccccc2)c(N)c(N)n1
- T/C [2]: 96 % of control
- T/C [4]: 97 % of control

Compound: S=c1nc[nH]c2nc(N=Nc3cc(Cl)ccc3Cl)[nH]c12
- T/C [2]: 101 % of control
- T/C [4]: 97 % of control

Compound: CC(C)=CCCC(C)C1CCC2C3CC=C4CC(O)CCC4(C)C3CCC12C (configuration not stated)
- T/C (dose: 100.0 mg/kg/injection, schedule: Q01DX001 (ip), vehicle: saline with Tween-80): 91 % of control
- T/C (dose: 200.0 mg/kg/injection, schedule: Q01DX001 (ip), vehicle: saline with Tween-80): 95 % of control
- T/C (dose: 400.0 mg/kg/injection, schedule: Q01DX001 (ip), vehicle: saline with Tween-80): 95 % of control

Compound: CCCCCCOC(=O)C(C)OC(=O)OCCOCCOC(=O)OC(C)C(=O)OCCCCCC (configuration not stated)
- T/C [2]: 100 % of control
- T/C [4]: 96 % of control
- T/C (dose: 400.0 mg/kg/injection, schedule: Q01DX001 (ip), vehicle: saline): 100 % of control

Compound: COc1ccc(CCNC(=O)Cc2ccc([N+](=O)[O-])cc2)cc1OC
- T/C [11]: 89 % of control
- T/C [12]: 98 % of control
- T/C [19]: 93 % of control

Compound: CC(C)CCCC(C)CCCC(C)CCCC(C)CC(=O)O (configuration not stated)
- T/C (dose: 100.0 mg/kg/injection, schedule: Q01DX001 (ip), vehicle: olive oil, sesame oil, peanut oil): 103 % of control
- T/C (dose: 200.0 mg/kg/injection, schedule: Q01DX001 (ip), vehicle: olive oil, sesame oil, peanut oil): 101 % of control
- T/C (dose: 400.0 mg/kg/injection, schedule: Q01DX001 (ip), vehicle: olive oil, sesame oil, peanut oil): 91 % of control

Compound: ClN=C(c1ccccc1)c1ccccc1
- T/C (dose: 12.0 mg/kg/injection, schedule: Q01DX009 (ip), vehicle: Klucel (hydroxypropylcellulose) (HPC)): 110 % of control
- T/C (dose: 25.0 mg/kg/injection, schedule: Q01DX009 (ip), vehicle: Klucel (hydroxypropylcellulose) (HPC)): 102 % of control
- T/C (dose: 50.0 mg/kg/injection, schedule: Q01DX009 (ip), vehicle: Klucel (hydroxypropylcellulose) (HPC)): 107 % of control
- T/C [14]: 100 % of control
- T/C [16]: 98 % of control

Compound: CSc1ccc(OC(C)=O)cc1
- T/C (dose: 50.0 mg/kg/injection, schedule: Q01DX009 (ip), vehicle: saline with Tween-80): 94 % of control
- T/C (dose: 100.0 mg/kg/injection, schedule: Q01DX009 (ip), vehicle: saline with Tween-80): 91 % of control
- T/C (dose: 200.0 mg/kg/injection, schedule: Q01DX009 (ip), vehicle: saline with Tween-80): 102 % of control

Compound: COc1ccc(CCCCI)cc1
- T/C [5]: 98 % of control
- T/C [6]: 93 % of control
- T/C [7]: 95 % of control
- T/C [8]: 94 % of control
- T/C [9]: 115 % of control
- T/C [10]: 95 % of control

Compound: O=C(OCc1ccccc1CN1CCOCC1)c1ccc([N+](=O)[O-])cc1
- T/C (dose: 100.0 mg/kg/injection, schedule: Q04DX002 (ip), vehicle: Klucel (hydroxypropylcellulose) (HPC)): 105 % of control
- T/C (dose: 200.0 mg/kg/injection, schedule: Q04DX002 (ip), vehicle: Klucel (hydroxypropylcellulose) (HPC)): 98 % of control
- T/C (dose: 400.0 mg/kg/injection, schedule: Q04DX002 (ip), vehicle: Klucel (hydroxypropylcellulose) (HPC)): 98 % of control

Compound: O=C1N=C(c2ccccc2)OC1C(=O)c1ccccc1 (configuration not stated)
- T/C [2]: 110 % of control
- T/C [4]: 94 % of control

Compound: O=C(c1ccccc1)c1ccc(Br)s1
- T/C [14]: 96 % of control
- T/C [16]: 97 % of control
- T/C [18]: 94 % of control

Compound: Cc1cc(N(C)C)nc(SCc2ccc(F)cc2)n1
- T/C (dose: 200.0 mg/kg/injection, schedule: Q01DX Z (ip), vehicle: methylcellulose (MC)): 96 % of control

Compound: C(=NCC(CCN1CCOCC1)(CCN1CCOCC1)c1cccc2ccccc12)C(CCN1CCOCC1)(CCN1CCOCC1)c1cccc2ccccc12
- T/C (dose: 25.0 mg/kg/injection, schedule: Q04DX003 (ip), vehicle: saline with Tween-80): 90 % of control
- T/C (dose: 50.0 mg/kg/injection, schedule: Q04DX003 (ip), vehicle: saline with Tween-80): 100 % of control
- T/C (dose: 100.0 mg/kg/injection, schedule: Q04DX003 (ip), vehicle: saline with Tween-80): 89 % of control

Compound: Nc1nc(N)c(N=Cc2ccc(N(CCCl)CCCl)cc2)c(N)n1
- T/C [1]: 100 % of control
- T/C [11]: 103 % of control
- T/C [4]: 103 % of control
- T/C [19]: 100 % of control
